The subject of data set [1] is HeLa. The data set is described as follows: Antiproliferative activity against human HeLa cells assessed as reduction in cell growth incubated for 72 hrs by resazurin dye based fluorescent assay.
For data set [2], the target named is Voltage-gated inwardly rectifying potassium channel KCNH2 (Homo sapiens, UniProt Q12809). Briefly: Inhibition of fluorescently labeled tracer binding to human ERG at 200 uM by competitive binding assay.
Data set [3] addresses T1, Beta-secretase 1 (Homo sapiens, UniProt P56817). The data set is described as follows: Inhibition of BACE1 (unknown origin) at 200 uM using HiLyte Fluo488/QXL-520 as substrate by FRET assay.
Data set [4] deals with T1, Beta-secretase 1. Briefly: Inhibition of BACE1 (unknown origin) using HiLyte Fluo488/QXL-520 as substrate by FRET assay.
Data set [5] is filed under the species Homo sapiens. Briefly: Selectivity ratio of IC50 for BACE1 (unknown origin) to IC50 for recombinant His-tagged […] (unknown origin) expressed in Escherichia coli BL21 (DE3) cells.

The text below walks through data of ChEMBL document CHEMBL4393699, “Ligand retargeting by binding site analogy” (Eur J Med Chem, 2019).

Molecules are shown by their SMILES. Activity calls are given as the source filed them. No cut-off for these calls is given here.

T1 sequence (P56817 whole entry): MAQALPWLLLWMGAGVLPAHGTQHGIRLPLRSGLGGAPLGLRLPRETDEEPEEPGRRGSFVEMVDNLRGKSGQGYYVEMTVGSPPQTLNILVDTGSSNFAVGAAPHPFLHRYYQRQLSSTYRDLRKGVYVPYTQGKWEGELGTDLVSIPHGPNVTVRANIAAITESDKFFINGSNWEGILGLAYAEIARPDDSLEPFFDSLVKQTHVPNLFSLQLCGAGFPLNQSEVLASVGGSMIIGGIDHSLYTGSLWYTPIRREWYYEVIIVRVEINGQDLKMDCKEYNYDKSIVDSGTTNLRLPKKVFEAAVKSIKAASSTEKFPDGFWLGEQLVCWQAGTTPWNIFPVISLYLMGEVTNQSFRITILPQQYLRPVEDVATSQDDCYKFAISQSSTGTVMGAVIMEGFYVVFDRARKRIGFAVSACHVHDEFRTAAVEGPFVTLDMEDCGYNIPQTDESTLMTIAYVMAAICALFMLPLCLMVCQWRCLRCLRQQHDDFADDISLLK
Chain of Voltage-gated inwardly rectifying potassium channel KCNH2 (Q12809 whole entry): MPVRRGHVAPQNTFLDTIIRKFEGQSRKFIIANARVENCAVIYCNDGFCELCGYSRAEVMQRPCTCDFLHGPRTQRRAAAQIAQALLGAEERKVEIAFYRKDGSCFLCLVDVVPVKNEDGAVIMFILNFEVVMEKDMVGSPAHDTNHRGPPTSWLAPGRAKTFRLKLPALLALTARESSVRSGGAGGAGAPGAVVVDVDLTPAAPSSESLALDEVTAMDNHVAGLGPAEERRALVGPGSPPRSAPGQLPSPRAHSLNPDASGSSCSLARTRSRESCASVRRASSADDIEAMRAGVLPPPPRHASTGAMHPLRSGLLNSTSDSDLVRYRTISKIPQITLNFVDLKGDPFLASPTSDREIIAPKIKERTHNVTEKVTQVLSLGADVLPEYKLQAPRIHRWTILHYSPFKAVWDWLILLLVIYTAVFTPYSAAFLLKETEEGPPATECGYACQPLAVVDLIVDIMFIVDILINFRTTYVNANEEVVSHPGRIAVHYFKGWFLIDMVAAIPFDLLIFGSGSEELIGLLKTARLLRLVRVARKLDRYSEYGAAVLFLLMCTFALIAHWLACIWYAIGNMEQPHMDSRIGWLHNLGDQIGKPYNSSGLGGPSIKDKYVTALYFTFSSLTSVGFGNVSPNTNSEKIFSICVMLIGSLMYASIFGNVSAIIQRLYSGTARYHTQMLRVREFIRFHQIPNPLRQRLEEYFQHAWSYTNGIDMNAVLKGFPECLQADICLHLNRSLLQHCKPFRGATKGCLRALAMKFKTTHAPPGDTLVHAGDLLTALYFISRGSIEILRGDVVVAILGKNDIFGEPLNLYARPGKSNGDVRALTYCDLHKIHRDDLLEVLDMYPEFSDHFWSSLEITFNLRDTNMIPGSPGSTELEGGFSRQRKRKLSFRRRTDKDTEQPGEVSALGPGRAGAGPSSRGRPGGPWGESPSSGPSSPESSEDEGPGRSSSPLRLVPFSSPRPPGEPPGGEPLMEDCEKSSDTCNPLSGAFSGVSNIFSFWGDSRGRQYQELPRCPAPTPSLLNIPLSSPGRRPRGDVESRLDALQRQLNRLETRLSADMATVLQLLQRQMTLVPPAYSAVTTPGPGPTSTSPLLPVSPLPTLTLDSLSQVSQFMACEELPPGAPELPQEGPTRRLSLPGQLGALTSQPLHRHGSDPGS

Consider `Nc1nc(NC2CC2)cc(-c2cccc(Cl)c2Cl)n1`, for which the GI50 in data set [1] was 3.8 µM.
In the case of `Nc1nc2c(-c3ccncc3F)ccnc2[nH]1`, the “inhibition (INH)” value in data set [2] was “Not Active”. Also, the GI50 in data set [1] lay in the range of 30 to 90 µM. Further, in data set [3], the inhibition entry is “inactive”. The IC50 in data set [4] is more than 200 µM.
Regarding `Nc1nc2ncccc2[nH]1`, the inhibition result in data set [3] was “inactive”. In data set [4], the IC50 was more than 200 µM.
As for `NCCc1ccc(O)c(C2CCCCC2)c1`, the Ratio IC50 in data set [5] stood at 5.
